Measured values as given in PMC12859765, “Phosphatidylcholine with C26:0 moiety, a precursor of a diagnostic marker for X-ALD, is synthesized by LPLAT10/LPEAT2” (Journal of Lipid Research, 2025).

Biological target: T1, LPLAT8/LPCAT1 (Homo sapiens, UniProt Q8NF37)
T1 construct: transiently expressed in HEK 293T; 100,000 g membrane fraction
T1 sequence (Q8NF37 1-534): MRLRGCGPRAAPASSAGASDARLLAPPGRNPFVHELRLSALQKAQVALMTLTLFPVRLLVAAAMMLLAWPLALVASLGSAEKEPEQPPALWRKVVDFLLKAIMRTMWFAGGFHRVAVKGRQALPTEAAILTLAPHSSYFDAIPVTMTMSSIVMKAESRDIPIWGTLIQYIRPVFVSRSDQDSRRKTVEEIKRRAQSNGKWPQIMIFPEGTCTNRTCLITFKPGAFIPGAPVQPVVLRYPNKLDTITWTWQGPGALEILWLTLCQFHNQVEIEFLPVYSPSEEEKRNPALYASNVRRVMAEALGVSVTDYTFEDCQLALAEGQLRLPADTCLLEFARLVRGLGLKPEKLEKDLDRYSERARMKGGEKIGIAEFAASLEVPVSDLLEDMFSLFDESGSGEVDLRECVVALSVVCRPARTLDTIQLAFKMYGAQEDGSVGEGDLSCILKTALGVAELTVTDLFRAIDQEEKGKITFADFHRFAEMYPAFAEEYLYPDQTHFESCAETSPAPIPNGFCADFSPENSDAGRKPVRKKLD
Experiment: LC-MS/MS acyltransferase assay, membrane fraction
Assay type: biochemical
Details: pH 7.4, 37 °C

| Structure (SMILES) | LC-MS/MS acyltransferase assay, membrane fraction (10 µM acyl-CoA, acceptor 2-16:0-d31-LPC 20 µM) | LC-MS/MS acyltransferase assay, membrane fraction (donor C26:0-CoA 10 µM, LPC 20 µM, labelled compound) |
| --- | --- | --- |
| CCCCCCCCCCCCCCCCCCCCCCCCCC(=O)SCCNC(=O)CCNC(=O)[C@H](O)C(C)(C)COP(=O)(O)OP(=O)(O)OC[C@H]1O[C@@H](n2cnc3c(N)ncnc32)[C@H](O)[C@@H]1OP(=O)(O)O [C26:0-CoA] | LPLAT8/LPCAT1, which has very high homology with LPLAT10 in terms of amino acid sequence, showed slight activity | – |
| CCCCCCCCCCCCCCCC(=O)O[C@H](CO)COP(=O)([O-])OCC[N+](C)(C)C [2-16:0-d31-LPC] | – | C26:0-CoA transfer activity was not significantly different between 2-acyl-LPC and 1-acyl-LPC |
